# Laboratory results: paper PMC5926742 (Japanese Journal of Cancer Research : Gann, 2001)
# Molecular target: DNA polymerase β (Bos taurus, UniProt Q27958)
# Experiment: [methyl-3H]TTP incorporation into activated DNA, DE81 paper disc
# Assay type: biochemical
row,SMILES,IC50 [µM]
1,Nc1ccn([C@@H]2O[C@H](COP(=O)(O)OP(=O)(O)OP(=O)(O)O)[C@@H](O)C2(F)F)c(=O)n1 [dFdCTP],450
2,Nc1ccn([C@H]2CC[C@@H](COP(=O)(O)OP(=O)(O)OP(=O)(O)O)O2)c(=O)n1 [ddCTP],240
